From patent US10988477B2 (Merck Patent GmbH, priority 2018, dated 2021)

Tests used:
GCN2 kinase = GCN2 kinase (Homo sapiens, UniProt Q9P2K8); test: GCN2 enzyme inhibition assay (Transcreener ADP2 fluorescence polarization); assay type: biochemical; settings: compounds of Formula II; 280 μM ATP, 4 nM GCN2 kinase
In short: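 ADP formation read by Transcreener FP after a 1 h, 25 °C kinase reaction containing 280 μM ATP, 200 μM (RS)7 substrate and 4 nM GCN2, pH 7.5 Tris buffer. Compounds (0–8 μM final) were added 10 min before ATP. Percent inhibition gave IC50 and apparent Ki via tight-binding fit.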

[1] = biological target: intracellular GCN2 (phosphorylation of the GCN2 substrate eIF2α) (Homo sapiens, UniProt Q9P2K8); test: GCN2 cellular inhibition assay (AlphaScreen SureFire P-eIF2α Ser51, borrelidin-treated U2OS cells); assay type: cell-based; settings: compounds of Formula II; biomarker assay, phosphorylated eIF2α Ser51 in borrelidin-treated U2OS cells
In short: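 U2OS cells, adhered overnight, received compounds in 4-fold serial dilutions from 40 μM final, then 10 μM borrelidin for 1 h at 37 °C. Lysates were read by AlphaScreen for phospho-eIF2α Ser51; percent inhibition was set against borrelidin-only wells.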

Sequence of GCN2 kinase (Q9P2K8 whole entry): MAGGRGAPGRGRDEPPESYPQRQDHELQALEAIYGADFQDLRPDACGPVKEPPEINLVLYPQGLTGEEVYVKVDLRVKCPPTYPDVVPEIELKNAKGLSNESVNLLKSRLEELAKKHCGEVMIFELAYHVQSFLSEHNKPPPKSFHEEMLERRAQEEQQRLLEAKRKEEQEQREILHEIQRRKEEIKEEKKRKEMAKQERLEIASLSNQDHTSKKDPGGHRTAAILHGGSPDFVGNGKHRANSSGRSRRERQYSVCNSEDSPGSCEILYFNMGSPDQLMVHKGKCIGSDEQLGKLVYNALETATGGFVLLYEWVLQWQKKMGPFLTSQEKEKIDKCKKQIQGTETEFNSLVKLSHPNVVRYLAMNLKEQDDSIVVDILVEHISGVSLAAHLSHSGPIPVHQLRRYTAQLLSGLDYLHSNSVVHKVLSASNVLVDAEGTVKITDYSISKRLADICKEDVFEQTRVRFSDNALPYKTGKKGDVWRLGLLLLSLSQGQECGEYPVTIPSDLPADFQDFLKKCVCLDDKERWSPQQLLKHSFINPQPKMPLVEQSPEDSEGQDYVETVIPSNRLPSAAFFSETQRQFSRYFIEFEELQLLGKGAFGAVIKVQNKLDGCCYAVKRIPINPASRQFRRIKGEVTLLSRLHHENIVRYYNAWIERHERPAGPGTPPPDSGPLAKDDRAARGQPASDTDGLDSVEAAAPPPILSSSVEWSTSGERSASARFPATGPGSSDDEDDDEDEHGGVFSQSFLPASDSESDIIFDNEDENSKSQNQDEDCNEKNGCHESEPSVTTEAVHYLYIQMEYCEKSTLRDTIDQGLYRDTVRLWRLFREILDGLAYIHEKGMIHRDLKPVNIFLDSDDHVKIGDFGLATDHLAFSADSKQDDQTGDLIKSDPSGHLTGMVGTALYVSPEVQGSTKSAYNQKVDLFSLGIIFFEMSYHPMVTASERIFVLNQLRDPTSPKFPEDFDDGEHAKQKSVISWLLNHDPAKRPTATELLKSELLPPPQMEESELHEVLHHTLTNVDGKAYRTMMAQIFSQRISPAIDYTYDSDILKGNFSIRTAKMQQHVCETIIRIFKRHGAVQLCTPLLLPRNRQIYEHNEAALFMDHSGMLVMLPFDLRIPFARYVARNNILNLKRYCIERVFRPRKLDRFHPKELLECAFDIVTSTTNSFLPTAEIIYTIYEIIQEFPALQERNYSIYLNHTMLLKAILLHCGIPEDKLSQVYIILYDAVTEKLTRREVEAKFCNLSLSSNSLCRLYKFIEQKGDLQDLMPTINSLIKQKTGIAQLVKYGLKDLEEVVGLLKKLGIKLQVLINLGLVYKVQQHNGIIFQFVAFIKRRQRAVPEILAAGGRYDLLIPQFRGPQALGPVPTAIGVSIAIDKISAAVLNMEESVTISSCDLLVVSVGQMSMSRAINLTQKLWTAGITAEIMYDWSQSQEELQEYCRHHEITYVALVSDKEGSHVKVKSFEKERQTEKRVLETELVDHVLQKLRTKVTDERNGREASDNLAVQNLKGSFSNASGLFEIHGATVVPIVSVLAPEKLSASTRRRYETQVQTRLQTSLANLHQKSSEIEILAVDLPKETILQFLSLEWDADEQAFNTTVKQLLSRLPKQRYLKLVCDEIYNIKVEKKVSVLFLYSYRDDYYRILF
Sequence of intracellular GCN2 (phosphorylation of the GCN2 substrate eIF2α) (Q9P2K8 whole entry): as above

Compound | Ki (GCN2 kinase) [nM] | IC50 [1] [nM]
COC1CCN(c2cc(-c3cnc4ccc(C(F)F)nn34)ncn2)CC1CNS(C)(=O)=O (centres unmarked) [II-390, N-((1-(6-(6-(Difluoromethyl)imidazo[1,2-b]pyridazin-3-yl)pyrimidin-4-yl)-4-methoxypiperidin-3-yl)methyl)methanesulfonamide] | < 10 | < 500
CCC1C(CNS(C)(=O)=O)CCCN1c1cc(-c2cnc3ccc(C(F)F)nn23)ncn1 (centres unmarked) [II-391, N-((1-(6-(6-(Difluoromethyl)imidazo[1,2-b]pyridazin-3-yl)pyrimidin-4-yl)-2-ethylpiperidin-3-yl)methyl)methanesulfonamide] | < 10 | < 500
CC1CC(CNS(C)(=O)=O)CN(c2cc(-c3cnc4ccc(C(F)F)nn34)ncn2)C1 (centres unmarked) [II-397, N-((1-(6-(6-(Difluoromethyl)imidazo[1,2-b]pyridazin-3-yl)pyrimidin-4-yl)-5-methylpiperidin-3-yl)methyl)methanesulfonamide] | < 10 | < 500
CC1CC(CNS(C)(=O)=O)CN(c2cc(-c3cnc4ccc(C(F)F)nn34)ncn2)C1 (centres unmarked) [II-398, N-((1-(6-(6-(Difluoromethyl)imidazo[1,2-b]pyridazin-3-yl)pyrimidin-4-yl)-5-methylpiperidin-3-yl)methyl)methanesulfonamide] | 10 to 1000 | 500 to 5000
NC(=O)C1CCN(c2cc(-c3cnc4ccc(C(F)F)nn34)ncn2)C1 (centres unmarked) [II-399, 1-(6-(6-(Difluoromethyl)imidazo[1,2-b]pyridazin-3-yl)pyrimidin-4-yl)pyrrolidine-3-carboxamide] | 10 to 1000 | > 5000
FC(F)c1ccc2ncc(-c3cc(N4CCOCC45CC5)ncn3)n2n1 [II-400, 4-(6-(6-(Difluoromethyl)imidazo[1,2-b]pyridazin-3-yl)pyrimidin-4-yl)-7-oxa-4-azaspiro[2.5]octane] | 10 to 1000 | > 5000
CC1(C)COCCN1c1cc(-c2cnc3ccc(C(F)F)nn23)ncn1 [II-402, 4-(6-(6-(Difluoromethyl)imidazo[1,2-b]pyridazin-3-yl)pyrimidin-4-yl)-3,3-dimethylmorpholine] | 10 to 1000 | > 5000
CC1(C)CN(c2cc(-c3cnc4ccc(C(F)F)nn34)ncn2)C[C@@H](CNS(C)(=O)=O)O1 [II-403, (S)—N-((4-(6-(6-(Difluoromethyl)imidazo[1,2-b]pyridazin-3-yl)pyrimidin-4-yl)-6,6-dimethylmorpholin-2-yl)methyl)methanesulfonamide] | < 10 | < 500
CS(C)(=O)=NC[C@@H]1CN(c2cc(-c3cnc4ccc(C(F)(F)F)nn34)ncn2)CCO1 [II-406, (S)-Dimethyl(((4-(6-(6-(trifluoromethyl)imidazo[1,2-b]pyridazin-3-yl)pyrimidin-4-yl)morpholin-2-yl)methyl)imino)-λ^6-sulfanone] | > 1000 | > 5000
CS(C)(=O)=NC1CCCN(c2cc(-c3cnc4ccc(C(F)(F)F)nn34)ncn2)C1 (centres unmarked) [II-407, Dimethyl((1-(6-(6-(trifluoromethyl)imidazo[1,2-b]pyridazin-3-yl)pyrimidin-4-yl)piperidin-3-yl)imino)-λ^6-sulfanone] | 10 to 1000 | > 5000
CN1CCN(c2cc(-c3cnc4ccc(C(F)F)nn34)ncn2)C[C@H]1CNS(C)(=O)=O [II-410] | 10 to 1000 | 500 to 5000
CC1CN(c2cc(-c3cnc4ccc(C(F)F)nn34)ncn2)CC(CNS(C)(=O)=O)N1 (centres unmarked) [II-411] | 10 to 1000 | 500 to 5000
CC1CN(c2cc(-c3cnc4ccc(C(F)F)nn34)ncn2)CC(CNS(C)(=O)=O)N1C (centres unmarked) [II-418, N-((4-(6-(6-(Difluoromethyl)imidazo[1,2-b]pyridazin-3-yl)pyrimidin-4-yl)-1,6-dimethylpiperazin-2-yl)methyl)methanesulfonamide] | 10 to 1000 | 500 to 5000
CC1CN(C)C(CNS(C)(=O)=O)CN1c1cc(-c2cnc3ccc(C(F)F)nn23)ncn1 (centres unmarked) [II-423, N-((4-(6-(6-(Difluoromethyl)imidazo[1,2-b]pyridazin-3-yl)pyrimidin-4-yl)-1,5-dimethylpiperazin-2-yl)methyl)methanesulfonamide] | 10 to 1000 | > 5000
CC1C(CS(N)(=O)=O)CCCN1c1cc(-c2cnc3ccc(C(F)F)nn23)ncn1 (centres unmarked) [II-424, (1-(6-(6-(Difluoromethyl)imidazo[1,2-b]pyridazin-3-yl)pyrimidin-4-yl)-2-methylpiperidin-3-yl)methanesulfonamide] | < 10 | < 500
CC1C(CS(C)(=N)=O)OCCN1c1cc(-c2cnc3ccc(C(F)F)nn23)ncn1 (centres unmarked) [II-425, ((4-(6-(6-(Difluoromethyl)imidazo[1,2-b]pyridazin-3-yl)pyrimidin-4-yl)-3-methylmorpholin-2-yl)methyl)(imino)(methyl)-λ^6-sulfanone] | 10 to 1000 | 500 to 5000
CC1C(CS(C)(=O)=O)OCCN1c1cc(-c2cnc3ccc(C(F)F)nn23)ncn1 (centres unmarked) [II-426, 4-(6-(6-(Difluoromethyl)imidazo[1,2-b]pyridazin-3-yl)pyrimidin-4-yl)-3-methyl-2-((methylsulfonyl)methyl)morpholine] | 10 to 1000 | 500 to 5000
CC1CN(c2cc(-c3cnc4ccc(C(F)F)nn34)ncn2)C(C)C(CNS(C)(=O)=O)N1 (centres unmarked) [II-427, N-((4-(6-(6-(Difluoromethyl)imidazo[1,2-b]pyridazin-3-yl)pyrimidin-4-yl)-3,6-dimethylpiperazin-2-yl)methyl)methanesulfonamide] | < 10 | < 500
CS(=O)(=O)NCC1CC(N2CC(F)C2)CN(c2cc(-c3cnc4ccc(C(F)F)nn34)ncn2)C1 (centres unmarked) [II-428, N-((1-(6-(6-(Difluoromethyl)imidazo[1,2-b]pyridazin-3-yl)pyrimidin-4-yl)-5-(3-fluoroazetidin-1-yl)piperidin-3-yl)methyl)methanesulfonamide] | 10 to 1000 | > 5000
CS(=O)(=O)NCC1CC(N2CC(F)C2)CN(c2cc(-c3cnc4ccc(C(F)F)nn34)ncn2)C1 (centres unmarked) [II-429, N-((1-(6-(6-(Difluoromethyl)imidazo[1,2-b]pyridazin-3-yl)pyrimidin-4-yl)-5-(3-fluoroazetidin-1-yl)piperidin-3-yl)methyl)methanesulfonamide] | 10 to 1000 | > 5000

The next lines start with the values.

Ki (GCN2 kinase) [nM] | IC50 [1] [nM] | Compound
10 to 1000 | 500 to 5000 | CS(=O)(=O)NCC1CCN(c2cc(-c3cnc4ccc(C(F)F)nn34)ncn2)C1 (centres unmarked) [II-394, N-((1-(6-(6-(Difluoromethyl)imidazo[1,2-b]pyridazin-3-yl)pyrimidin-4-yl)pyrrolidin-3-yl)methyl)methanesulfonamide]
10 to 1000 | > 5000 | CS(=O)(=O)C1CCN(c2cc(-c3cnc4ccc(C(F)F)nn34)ncn2)C1 (centres unmarked) [II-395, 6-(Difluoromethyl)-3-(6-(3-(methylsulfonyl)pyrrolidin-1-yl)pyrimidin-4-yl)imidazo[1,2-b]pyridazine]
10 to 1000 | 500 to 5000 | CS(=O)(=O)CC1CCN(c2cc(-c3cnc4ccc(C(F)F)nn34)ncn2)C1 (centres unmarked) [II-396, 6-(Difluoromethyl)-3-(6-(3-((methylsulfonyl)methyl)pyrrolidin-1-yl)pyrimidin-4-yl)imidazo[1,2-b]pyridazine]
10 to 1000 | 500 to 5000 | CS(C)(=O)=NC1CCCN(c2cc(-c3cnc4ccc(C(F)F)nn34)ncn2)C1 (centres unmarked) [II-408, ((1-(6-(6-(Difluoromethyl)imidazo[1,2-b]pyridazin-3-yl)pyrimidin-4-yl)piperidin-3-yl)imino)dimethyl-λ^6-sulfanone]
10 to 1000 | > 5000 | NCC1CCN(c2cc(-c3cnc4ccc(C(F)F)nn34)ncn2)C1 (centres unmarked) [II-409, (1-(6-(6-(Difluoromethyl)imidazo[1,2-b]pyridazin-3-yl)pyrimidin-4-yl)pyrrolidin-3-yl)methanamine]
10 to 1000 | 500 to 5000 | CC1(NS(C)(=O)=O)CCCN(c2cc(-c3cnc4ccc(C(F)F)nn34)ncn2)C1 (centres unmarked) [II-412, N-(1-(6-(6-(Difluoromethyl)imidazo[1,2-b]pyridazin-3-yl)pyrimidin-4-yl)-3-methylpiperidin-3-yl)methanesulfonamide]
10 to 1000 | > 5000 | NS(=O)(=O)NCC1CCN(c2cc(-c3cnc4ccc(C(F)F)nn34)ncn2)C1 (centres unmarked) [II-415, 1-((1-(6-(6-(Difluoromethyl)imidazo[1,2-b]pyridazin-3-yl)pyrimidin-4-yl)pyrrolidin-3-yl)methyl)sulfuric diamide]
10 to 1000 | 500 to 5000 | O=S(=O)(N[C@H]1CCCN(c2cc(-c3cnc4ccc(C(F)F)nn34)ncn2)C1)C1COC1 [II-419, (S)—N-(1-(6-(6-(Difluoromethyl)imidazo[1,2-b]pyridazin-3-yl)pyrimidin-4-yl)piperidin-3-yl)oxetane-3-sulfonamide]
10 to 1000 | 500 to 5000 | O=S(=O)(CC1CC1)N[C@H]1CCCN(c2cc(-c3cnc4ccc(C(F)F)nn34)ncn2)C1 [II-420, (S)-1-Cyclopropyl-N-(1-(6-(6-(difluoromethyl)imidazo[1,2-b]pyridazin-3-yl)pyrimidin-4-yl)piperidin-3-yl)methanesulfonamide]
10 to 1000 | 500 to 5000 | CCS(=O)(=O)N[C@H]1CCCN(c2cc(-c3cnc4ccc(C(F)F)nn34)ncn2)C1 [II-421, (S)—N-(1-(6-(6-(Difluoromethyl)imidazo[1,2-b]pyridazin-3-yl)pyrimidin-4-yl)piperidin-3-yl)ethanesulfonamide]
10 to 1000 | < 500 | CNS(=O)(=O)N[C@H]1CCCN(c2cc(-c3cnc4ccc(C(F)F)nn34)ncn2)C1 [II-422, (S)-1-(1-(6-(6-(Difluoromethyl)imidazo[1,2-b]pyridazin-3-yl)pyrimidin-4-yl)piperidin-3-yl)-3-methylsulfuric diamide]
